Values of other authors in patent publication US20160015644A1, “GASTRO-RETENTIVE SUSTAINED-RELEASE ORAL DOSAGE FORM OF A BILE ACID SEQUESTRANT” (IRONWOOD PHARMACEUTICALS, INC., priority 2013, published 2016).

Experiments:
[1] = target: gastric proton pump (Canis lupus familiaris, UniProt P50996); settings: conscious, pentagastrin-stimulated fistula dog
[2] = target: gastric proton pump (Homo sapiens, UniProt P20648)
Sequence of gastric proton pump (Homo sapiens, UniProt P20648) (P20648 whole entry): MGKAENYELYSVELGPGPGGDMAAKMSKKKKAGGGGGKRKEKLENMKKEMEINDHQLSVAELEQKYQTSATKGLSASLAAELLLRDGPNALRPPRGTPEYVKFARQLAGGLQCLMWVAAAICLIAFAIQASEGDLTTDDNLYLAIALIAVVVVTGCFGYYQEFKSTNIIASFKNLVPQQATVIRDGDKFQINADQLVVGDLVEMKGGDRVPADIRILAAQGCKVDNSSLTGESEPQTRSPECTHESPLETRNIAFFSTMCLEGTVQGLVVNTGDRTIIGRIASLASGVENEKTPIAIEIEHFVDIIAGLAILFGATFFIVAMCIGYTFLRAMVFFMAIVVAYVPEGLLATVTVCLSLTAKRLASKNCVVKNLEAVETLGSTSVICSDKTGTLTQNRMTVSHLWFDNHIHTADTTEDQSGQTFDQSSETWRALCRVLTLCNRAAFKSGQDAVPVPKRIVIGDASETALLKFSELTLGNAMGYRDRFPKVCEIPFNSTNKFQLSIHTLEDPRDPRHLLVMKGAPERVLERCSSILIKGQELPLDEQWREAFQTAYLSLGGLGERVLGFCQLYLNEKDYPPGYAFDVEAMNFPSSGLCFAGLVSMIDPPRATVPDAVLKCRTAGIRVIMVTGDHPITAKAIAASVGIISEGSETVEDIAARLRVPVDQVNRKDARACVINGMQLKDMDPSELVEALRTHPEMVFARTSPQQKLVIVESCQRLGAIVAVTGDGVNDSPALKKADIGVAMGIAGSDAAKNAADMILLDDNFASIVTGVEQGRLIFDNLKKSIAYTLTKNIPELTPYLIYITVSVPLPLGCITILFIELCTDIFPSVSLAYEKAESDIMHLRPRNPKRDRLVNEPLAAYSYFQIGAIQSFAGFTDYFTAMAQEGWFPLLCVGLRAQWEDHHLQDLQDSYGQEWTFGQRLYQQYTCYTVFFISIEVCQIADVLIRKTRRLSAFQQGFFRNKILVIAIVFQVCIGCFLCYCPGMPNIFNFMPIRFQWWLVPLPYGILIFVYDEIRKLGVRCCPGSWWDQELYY
Sequence of gastric proton pump (Homo sapiens, UniProt P20648) (P51164 whole entry partner): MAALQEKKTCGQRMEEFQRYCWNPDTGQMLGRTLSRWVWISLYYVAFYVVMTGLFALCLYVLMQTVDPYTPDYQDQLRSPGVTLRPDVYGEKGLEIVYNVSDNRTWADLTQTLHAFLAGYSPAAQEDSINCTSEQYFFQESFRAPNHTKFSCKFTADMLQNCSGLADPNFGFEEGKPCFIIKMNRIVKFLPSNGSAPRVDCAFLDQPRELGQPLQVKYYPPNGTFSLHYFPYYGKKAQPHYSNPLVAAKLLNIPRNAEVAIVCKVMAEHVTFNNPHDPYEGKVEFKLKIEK

Sequence of gastric proton pump (Canis lupus familiaris, UniProt P50996) (P50996 whole entry): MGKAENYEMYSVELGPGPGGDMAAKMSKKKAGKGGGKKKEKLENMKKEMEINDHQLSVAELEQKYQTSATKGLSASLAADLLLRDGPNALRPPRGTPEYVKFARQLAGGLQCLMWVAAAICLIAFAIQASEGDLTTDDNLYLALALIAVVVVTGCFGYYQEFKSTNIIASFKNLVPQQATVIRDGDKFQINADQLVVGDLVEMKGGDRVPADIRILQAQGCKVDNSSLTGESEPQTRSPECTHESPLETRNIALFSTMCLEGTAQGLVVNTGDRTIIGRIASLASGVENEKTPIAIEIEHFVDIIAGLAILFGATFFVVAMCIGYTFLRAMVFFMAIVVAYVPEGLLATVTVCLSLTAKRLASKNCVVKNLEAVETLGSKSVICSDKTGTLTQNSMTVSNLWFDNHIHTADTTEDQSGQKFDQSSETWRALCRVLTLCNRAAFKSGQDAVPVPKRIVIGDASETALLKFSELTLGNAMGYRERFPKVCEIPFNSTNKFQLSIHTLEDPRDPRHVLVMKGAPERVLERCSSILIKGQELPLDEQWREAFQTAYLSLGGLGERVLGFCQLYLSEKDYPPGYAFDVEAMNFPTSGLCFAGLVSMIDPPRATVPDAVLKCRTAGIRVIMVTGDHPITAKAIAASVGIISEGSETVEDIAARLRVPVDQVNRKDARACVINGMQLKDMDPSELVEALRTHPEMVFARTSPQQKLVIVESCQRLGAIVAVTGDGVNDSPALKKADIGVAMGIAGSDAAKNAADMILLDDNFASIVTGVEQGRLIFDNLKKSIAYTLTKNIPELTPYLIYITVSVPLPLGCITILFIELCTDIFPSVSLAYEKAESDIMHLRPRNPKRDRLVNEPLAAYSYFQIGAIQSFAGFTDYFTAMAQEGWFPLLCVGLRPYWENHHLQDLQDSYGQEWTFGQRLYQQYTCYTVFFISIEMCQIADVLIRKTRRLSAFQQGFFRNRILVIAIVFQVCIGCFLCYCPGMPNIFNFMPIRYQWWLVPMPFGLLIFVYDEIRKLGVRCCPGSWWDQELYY
Sequence of gastric proton pump (Canis lupus familiaris, UniProt P50996) (P33704 whole entry partner): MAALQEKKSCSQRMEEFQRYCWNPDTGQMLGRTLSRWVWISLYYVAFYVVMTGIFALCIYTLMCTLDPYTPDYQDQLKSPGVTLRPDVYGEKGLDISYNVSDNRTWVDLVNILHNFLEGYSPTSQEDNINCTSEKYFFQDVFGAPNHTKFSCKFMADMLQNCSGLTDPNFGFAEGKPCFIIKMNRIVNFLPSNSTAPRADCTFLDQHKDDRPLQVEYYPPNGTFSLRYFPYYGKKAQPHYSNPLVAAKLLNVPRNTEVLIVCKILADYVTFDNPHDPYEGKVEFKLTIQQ

**Q.** Which results are given for COC(=O)Nc1cccc(C)c1CNc1cccn2c(C)c(C)nc12 [BY841, (8-(2-methoxcarbonylamino-6-methyl-phenylmethylamino)-2,3-dimethyl-imida [1,2-a]-pyridine)]?
**A.** intragastric pH [1]: ≤ 6; comparison with ranitidine and omeprazole ([1]; elevation of intragastric pH): superior to both ranitidine and omeprazole; effectiveness in comparison with the standard dose of omeprazole ([2]; 50 mg or 100 mg twice daily, Day one of treatment): markedly more effective; potency in comparison with the standard dose of omeprazole ([2]; 50 mg or 100 mg twice daily, following repeated daily administration): at least as potent as omeprazole; intragastric pH ([2]; single 50 mg oral dose): about 6
